“Also recorded” adds a separate entry of the source.
Legend:
Type in all cases: in vivo
[1] = tested on: fully mismatched cardiac allografts (C57/BL 6 donor with Balb/C recipient); experiment: Heterotypic allogeneic heart transplant model with CD154 blockade, second mouse model (Example 2)
Experimental: The ability of compound 1 to inhibit chronic transplant rejection was tested in a mouse heterotypic allogeneic heart transplant model in which acute allograft rejection was prevented with CD154 blockade as previously described (Hancock, W. W. et al. 1996. Proc. Natl. Acad. Sci. USA. 93:13967; and Yuan et al., Transplantation 73:1736). Briefly, this model consists of fully mismatched cardiac allografts (C57/BL 6 donor with Balb/C recipient). […] A third group in which acute rejection is blocked by administering a single 250 μg dose of anti-CD154 (anti-CD40 ligand) monoclonal antibody was established, and acute rejection (as evidenced by cessation of contraction of the transplanted heart) occurred in approximately 50% of recipient animals. […] These include profound athlerosclerotic blockages of heart arteries, cellular inflammation (immune cell infiltration into the heart muscle itself), and fibrotic scarring of the cardiac parenchyma. The hearts were subjected to a histopathological score. The histopathological scores (range 0-5 indicating severity of chronic rejection accelerated atherosclerosis, with 0 being normal blood vessel and 5 being fully occluded) are shown in FIG. 2. Thus the addition of anti-CD154 to this model offers certain similarities to the human transplant clinical condition in that acute rejection is managed (in this case with the anti-CD154 monoclonal antibody) so that chronic rejection pathology can be observed.

[2] = tested on: hearts from donor B6.C-H2^bm12 mice transplanted into C57/BL6 recipient mice (MHC II mismatch); experiment: Chronic rejection of MHC class II mismatched heart transplants, first mouse model (Example 1)
Experimental: The ability of Compound 1 to inhibit chronic transplant rejection in a mouse model was tested. Specifically, hearts from donor B6.C-H2^bm12 mice were transplanted into C57/BL6 recipient mice (MHC II mismatch) using standard protocol described in Hancock, W. W., et al. Proc. Natl. Acad. Sci. USA 93: 13967 (1996) and Yuan et al., Transplantation 73:1736, the entire teachings of which are incorporated herein by reference. Following surgery, the mice were divided into the following treatment groups with seven mice each:
Group I was a control group that was untreated.
Group II was treated with Compound 1 at a dose of 75 mg/kg/day subcutaneously for fourteen days following surgery.
At eight weeks following transplant surgery, the mice were sacrificed and evaluated for chronic rejection accelerated atherosclerosis. Briefly, transplanted hearts were fixed in formalin, embedded in paraffin and sectioned coronally. The sections were scanned for arterial blood vessels, which were subjected to a histopathological score. The histopathological scores (range 0-5 indicating severity of chronic rejection accelerated atherosclerosis, with 0 being normal blood vessel and 5 being fully occluded) are shown in FIG. 1. […] It is likely that increased bioavailability resulting from improved compound formulation will result in more complete protection from chronic rejection vasculopathy.

[3] = tested on: heart from C57/BL6 mice transplanted into Balb/c recipient mice (total MHC mismatch); experiment: Transplant rejection in total MHC mismatch heart transplant mouse model (Example 3); settings: Compound 1 alone 75 mg/kg/day s.c. for fourteen days; p<0.001; untreated controls rejected after ten days
Experimental: The ability of Compound 1 to inhibit transplant rejection in a mouse model was tested. Specifically, the heart from C57/BL6 mice was transplanted into Balb/c recipient mice (total MHC mismatch) using standard protocol described in Hancock, W. W., et al. “Costimulatory function and expression of CD40 ligand, CD80 and CD86 in vascularized murine cardiac allograft rejection” Proc. Natl. Acad. Sci. USA 93: 13967 (1996). Following surgery, the mice were divided into the following treatment groups: • Group I is a control group that was untreated. • Group II was treated with Compound 1 at a dose of 75 mg/kg/day subcutaneously for fourteen days following surgery. Control mice receiving no treatment reproducibly experienced rejection of their transplanted hearts after only ten days.

N#Cc1cccc(C(C(=O)NCC(c2ccccc2)c2ccccc2)N(CCc2c[nH]cn2)C(=O)c2ccccc2C(=O)c2ccccc2)c1 (centres unmarked) [Compound 1] was tested, and the “chronic rejection of transplanted hearts” value ([1]; 75 mg/kg/day Compound 1 for two weeks combined with single 250 μg anti-CD154 monoclonal antibody, 120 days post surgery) was “inhibited”, the “indicators of chronic graft rejection (atherosclerotic blockages, cellular inflammation, fibrotic scarring), histological evaluation” value ([1]; Compound 1 75 mg/kg daily s.c. for 14 days plus single dose anti-CD154, compared with anti-CD154 alone, more than 100 days post surgery) was “dramatic inhibition of all indicators of chronic rejection” and the “transplant recipient animals with lack of acute rejection” value ([1]; Compound 1 75 mg/kg daily s.c. for 14 days plus single dose anti-CD154, for more than 100 days post surgery) was 100%. The “extension in transplant survival” value ([1]; Compound 1 alone, untreated recipients rejected within 10 days) was “about 20 days”, the “animals free of vasculopathy” value ([2]; 75 mg/kg/day s.c. for fourteen days, eight weeks after transplant, seven mice per group) was 4/7 and the “treated animals showing full involvement (vasculopathy)” value ([2]; 75 mg/kg/day s.c. for fourteen days, eight weeks after transplant, seven mice per group, possibly diminished exposure) was “three”. For the same molecule, the “histological evidence of chronic rejection (histopathological score 0-5, chronic rejection accelerated atherosclerosis)” value ([2]; 75 mg/kg/day subcutaneously for fourteen days following surgery, evaluated eight weeks after transplant, averaged for all animals, vs untreated control) was “inhibited; also recorded: significantly (p=0.0002) prevented histological evidence of chronic rejection” and the “delay in the onset of rejection” value [3] was “two to three”.

From US7687530B2, “Inhibition of chronic tissue transplant rejection” (Genzyme Corporation, priority 2002, dated 2010)
